The values that follow come from the supplement of paper PMC10307832.

What all share (test): relative viability (nuclei count vs DMSO), 5 days (fraction); higher = more cells survive
Compound in assay [1]: C1CCC(CC1)N(CCNCCC2=C3C(=C(C=C2)O)NC(=O)CO3)C(=O)CCNCCC4=CC(=C(C=C4)Cl)Cl [AZ505] + CC(=O)c1c(C)c2cnc(Nc3ccc(N4CCNCC4)cn3)nc2n(C2CCCC2)c1=O [Palbociclib] (partner 0.5 µM)
Put shortly: (§1)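 Each reported value is a median over duplicate plates. It expresses relative viability: treated-well nuclei count divided by vehicle-well nuclei count. Lung cancer cell lines in 1536-well plates were dosed by pin tool a day after seeding, alone with one drug or with a fixed anchor-drug dose plus five library-drug doses (not always all listed) in √10 steps, and nuclei were counted after 5 days.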

Compound in assay [2]: C1CCC(CC1)N(CCNCCC2=C3C(=C(C=C2)O)NC(=O)CO3)C(=O)CCNCCC4=CC(=C(C=C4)Cl)Cl [AZ505] + CCNC(=O)c1noc(-c2cc(C(C)C)c(O)cc2O)c1-c1ccc(CN2CCOCC2)cc1 [Luminespib] (partner 0.01 µM)
Put shortly:
as §1

Compound in assay [3]: C1CCC(CC1)N(CCNCCC2=C3C(=C(C=C2)O)NC(=O)CO3)C(=O)CCNCCC4=CC(=C(C=C4)Cl)Cl [AZ505] + Cc1nc(NC(=O)N2CCC[C@H]2C(N)=O)sc1-c1ccnc(C(C)(C)C(F)(F)F)c1 [Alpelisib] (partner 2 µM)
The gist of the method: as §1

Compound in assay [4]: C1CCC(CC1)N(CCNCCC2=C3C(=C(C=C2)O)NC(=O)CO3)C(=O)CCNCCC4=CC(=C(C=C4)Cl)Cl [AZ505] + N=C(N)NC(=N)NCCc1ccccc1 [Phenformin] (partner 250 µM)
Put shortly: as §1

For UMC-11, the relative viability in assay [1] (first compound 0.08 µM) came to 0.303; in assay [1] (first compound 0.253 µM) it was 0.33; in assay [1] (first compound 0.8 µM) it was 0.332; in assay [1] (first compound 2.53 µM), 0.337; in assay [1] (first compound 8 µM), 0.321; in assay [2] (first compound 0.08 µM), 1.05. In addition, the relative viability in assay [2] (first compound 0.253 µM) is 1.04; in assay [2] (first compound 0.8 µM) it was 0.996; in assay [2] (first compound 2.53 µM), 1.01; in assay [2] (first compound 8 µM), 1.03; in assay [3] (first compound 0.08 µM) it was 0.936; in assay [3] (first compound 0.253 µM), 1.13. For the same cell line, the relative viability in assay [3] (first compound 0.8 µM) was found to be 0.899; in assay [3] (first compound 2.53 µM) it was 0.827; in assay [3] (first compound 8 µM), 1.04; in assay [4] (first compound 0.08 µM) it was 0.305; in assay [4] (first compound 0.253 µM), 0.323; in assay [4] (first compound 0.8 µM), 0.328. Besides, the relative viability was found to be 0.328 in assay [4] (first compound 2.53 µM) and 0.325 in assay [4] (first compound 8 µM).
